Laboratory results from ChEMBL document CHEMBL1147043, “Comparative metabolism of radiolabeled muraglitazar in animals and humans by quantitative and qualitative metabolite profiling” (Drug Metab Dispos, 2007).

Experiments:
[1] = Biodistribution in orally dosed human feces assessed as muraglitazar 12-carboxylic acid level by LC/MS analysis; type: ADME, organism-based; conditions: in vivo, po
[2] = Metabolic stability in CD1 mouse hepatocytes assessed as 17-hydroxy-O-demethyl muraglitazar level by LC/MS analysis relative to control; type: ADME, cell-based, Hepatocyte
[3] = Drug concentration in bile duct-cannulated Sprague-Dawley rat feces assessed as recovery of radioactive dose at 11 mg/kg, po after 24 hrs; type: ADME, organism-based; design: dose 11 mg/kg, route oral; conditions: in vivo
Plasma [4] = experiment: Biodistribution in orally dosed cynomolgus monkey plasma assessed as O-demethyl muraglitazar glucuronide level after 4 hrs by LC/MS analysis; type: ADME, organism-based, Macaca fascicularis; conditions: in vivo, po
Plasma [5] = experiment: Biodistribution in orally dosed human plasma assessed as 12-hydroxy-O-demethyl muraglitazar level after 12 hrs by LC/MS analysis; type: ADME, organism-based; conditions: in vivo, po
Plasma [6] = experiment: Biodistribution in orally dosed Beagle dog plasma assessed as O-Dealkyl muraglitazar level after 4 hrs by LC/MS analysis; type: ADME, organism-based, Canis lupus familiaris; conditions: in vivo, po
[7] = Biodistribution in orally dosed cynomolgus monkey feces assessed as imide derivative of muraglitazar level by LC/MS analysis; type: ADME, organism-based, Macaca fascicularis; conditions: in vivo, po
[8] = Metabolic stability in cynomolgus monkey hepatocytes assessed as 8-hydroxy muraglitazar level by LC/MS analysis relative to control; type: ADME, cell-based, Macaca fascicularis, Hepatocyte
[9] = Biodistribution in orally dosed human feces assessed as 12-hydroxy-O-demethyl muraglitazar level by LC/MS analysis; type: ADME, organism-based; conditions: in vivo, po
Rattus norvegicus [10] = experiment: Biodistribution in orally dosed Sprague-Dawley rat urine assessed as muraglitazar 12-carboxylic acid level by LC/MS analysis; type: ADME, organism-based; conditions: in vivo, po
Plasma [11] = experiment: Biodistribution in orally dosed cynomolgus monkey plasma assessed as […] muraglitazar level after 1 hr by LC/MS analysis; type: ADME, organism-based, Macaca fascicularis; conditions: in vivo, po
[12] = Drug concentration in bile duct-cannulated CD1 mouse bile at 40 mg/kg, po after 24 hrs; type: ADME, organism-based; design: dose 40 mg/kg, route oral; conditions: read-out: Drug uptake
[13] = Biodistribution in orally dosed Beagle dog feces assessed as 12-hydroxy muraglitazar level by LC/MS analysis; type: ADME, organism-based, Canis lupus familiaris; conditions: in vivo, po
[14] = Metabolic stability in CD1 mouse hepatocytes assessed as 8,12-dihydroxy muraglitazar level by LC/MS analysis relative to control; type: ADME, cell-based, Hepatocyte
Plasma [15] = experiment: Biodistribution in orally dosed Sprague-Dawley rat plasma assessed as 8-hydroxy-O-demethyl muraglitazar level after 12 hrs by LC/MS analysis; type: ADME, organism-based; conditions: in vivo, po
Rattus norvegicus [16] = experiment: Biodistribution in orally dosed Sprague-Dawley rat feces assessed as 8-hydroxy-O-demethyl muraglitazar level by LC/MS analysis; type: ADME, organism-based; conditions: in vivo, po
Plasma [17] = experiment: Biodistribution in orally dosed human plasma assessed as 12-hydroxy-O-demethyl muraglitazar level after 4 hrs by LC/MS analysis; type: ADME, organism-based; conditions: in vivo, po
[18] = Biodistribution in orally dosed human feces assessed as O-dealkyl-O-demethyl muraglitazar level by LC/MS analysis; type: ADME, organism-based; conditions: in vivo, po
[19] = Biodistribution in orally dosed cynomolgus monkey feces assessed as 8,12-dihydroxy muraglitazar level by LC/MS analysis; type: ADME, organism-based, Macaca fascicularis; conditions: in vivo, po
Plasma [20] = experiment: Biodistribution in orally dosed cynomolgus monkey plasma assessed as 17-hydroxy-O-demethyl muraglitazar level after 4 hrs by LC/MS analysis; type: ADME, organism-based, Macaca fascicularis; conditions: in vivo, po
[21] = Fecal excretion rate in orally dosed Sprague-Dawley rat within 24 hrs; type: ADME, organism-based; conditions: faeces, po, read-out: Activity
Hepatocyte [22] = experiment: Metabolic stability in human hepatocytes assessed as 8,12-dihydroxy muraglitazar level by LC/MS analysis relative to control; type: ADME, cell-based
Plasma [23] = experiment: Biodistribution in orally dosed cynomolgus monkey plasma assessed as 12,17-dihydroxy muraglitazar level after 1 hr by LC/MS analysis; type: ADME, organism-based, Macaca fascicularis; conditions: in vivo, po
Hepatocyte [24] = experiment: Metabolic stability in human hepatocytes assessed as O-Dealkyl muraglitazar level by LC/MS analysis relative to control; type: ADME, cell-based
[25] = Biodistribution in orally dosed Beagle dog urine assessed as O-dealkyl-O-demethyl muraglitazar level by LC/MS analysis; type: ADME, organism-based, Canis lupus familiaris; conditions: in vivo, po
[26] = Metabolic stability in cynomolgus monkey hepatocytes assessed as hydroxyl-O-demethyl muraglitazar glucuronide level by LC/MS analysis relative to control; type: ADME, cell-based, Macaca fascicularis, Hepatocyte
[27] = Drug concentration in human bile at 20 mg/kg, po after 48 hrs; type: ADME, organism-based; design: dose 20 mg/kg, route oral; conditions: in vivo
Rattus norvegicus [28] = experiment: Biodistribution in orally dosed Sprague-Dawley rat urine assessed as 17-hydroxy-O-demethyl muraglitazar level by LC/MS analysis; type: ADME, organism-based; conditions: in vivo, po
[29] = Biodistribution in orally dosed cynomolgus monkey urine assessed as 8-hydroxy muraglitazar level by LC/MS analysis; type: ADME, organism-based, Macaca fascicularis; conditions: in vivo, po
[30] = Metabolic stability in cynomolgus monkey hepatocytes assessed as 9-hydroxy muraglitazar level by LC/MS analysis relative to control; type: ADME, cell-based, Macaca fascicularis, Hepatocyte
Hepatocyte [31] = experiment: Metabolic stability in human hepatocytes assessed as O-demethyl muraglitazar level by LC/MS analysis relative to control; type: ADME, cell-based
[32] = Drug concentration in bile duct-cannulated CD1 mouse bile assessed as recovery of radioactive dose at 1 mg/kg, po after 24 hrs; type: ADME, organism-based; design: dose 1 mg/kg, route oral; conditions: in vivo
Plasma [33] = experiment: Biodistribution in orally dosed cynomolgus monkey plasma assessed as 12-hydroxy-O-demethyl muraglitazar level after 1 hr by LC/MS analysis; type: ADME, organism-based, Macaca fascicularis; conditions: in vivo, po
[34] = Metabolic stability in cynomolgus monkey hepatocytes assessed as muraglitazar 12-carboxylic acid level by LC/MS analysis relative to control; type: ADME, cell-based, Macaca fascicularis, Hepatocyte
[35] = Biodistribution in orally dosed cynomolgus monkey urine assessed as 12-hydroxy muraglitazar level by LC/MS analysis; type: ADME, organism-based, Macaca fascicularis; conditions: in vivo, po
Plasma [36] = experiment: Biodistribution in orally dosed human plasma assessed as muraglitazar 12-carboxylic acid level after 4 hrs by LC/MS analysis; type: ADME, organism-based; conditions: in vivo, po
[37] = Biodistribution in orally dosed cynomolgus monkey urine assessed as 9-hydroxy muraglitazar level by LC/MS analysis; type: ADME, organism-based, Macaca fascicularis; conditions: in vivo, po
[38] = Drug concentration in bile duct-cannulated CD1 mouse bile assessed as recovery of radioactive dose at 40 mg/kg, po after 24 hrs; type: ADME, organism-based; design: dose 40 mg/kg, route oral; conditions: in vivo
Rattus norvegicus [39] = experiment: Biodistribution in orally dosed Sprague-Dawley rat feces assessed as O-demethyl muraglitazar level by LC/MS analysis; type: ADME, organism-based; conditions: in vivo, po
[40] = Drug concentration in bile duct-cannulated Sprague-Dawley rat bile assessed as recovery of radioactive dose at 11 mg/kg, po after 24 hrs; type: ADME, organism-based; design: dose 11 mg/kg, route oral; conditions: in vivo
[41] = Biodistribution in orally dosed human feces assessed as 17-hydroxy-O-demethyl muraglitazar level by LC/MS analysis; type: ADME, organism-based; conditions: in vivo, po
Plasma [42] = experiment: Biodistribution in orally dosed cynomolgus monkey plasma assessed as […] muraglitazar level after 12 hrs by LC/MS analysis; type: ADME, organism-based, Macaca fascicularis; conditions: in vivo, po
Plasma [43] = experiment: Biodistribution in orally dosed Beagle dog plasma assessed as O-demethyl muraglitazar level after 1 hr by LC/MS analysis; type: ADME, organism-based, Canis lupus familiaris; conditions: in vivo, po
Plasma [44] = experiment: Biodistribution in orally dosed cynomolgus monkey plasma assessed as 12-dihydroxy muraglitazar level after 12 hrs by LC/MS analysis; type: ADME, organism-based, Macaca fascicularis; conditions: in vivo, po
[45] = Drug concentration in Sprague-Dawley rat urine at 11 mg/kg, po after 12 hrs; type: ADME, organism-based; design: dose 11 mg/kg, route oral; conditions: read-out: Drug uptake
[46] = Metabolic stability in CD1 mouse hepatocytes assessed as muraglitazar 12-carboxylic acid level by LC/MS analysis relative to control; type: ADME, cell-based, Hepatocyte
[47] = Biodistribution in orally dosed cynomolgus monkey urine assessed as 12,17-dihydroxy muraglitazar level by LC/MS analysis; type: ADME, organism-based, Macaca fascicularis; conditions: in vivo, po
Plasma [48] = experiment: Biodistribution in orally dosed cynomolgus monkey plasma assessed as 17-dihydroxy muraglitazar level after 12 hrs by LC/MS analysis; type: ADME, organism-based, Macaca fascicularis; conditions: in vivo, po
[49] = Fecal excretion of compound in bile duct-cannulated orally dosed cynomolgus monkey within 48 hrs; type: ADME, organism-based, Macaca fascicularis; conditions: faeces, po, read-out: Activity
[50] = Biodistribution in orally dosed cynomolgus monkey urine assessed as 12-hydroxy-O-demethyl muraglitazar level by LC/MS analysis; type: ADME, organism-based, Macaca fascicularis; conditions: in vivo, po
[51] = Metabolic stability in cynomolgus monkey hepatocytes assessed as 17-hydroxy-O-demethyl muraglitazar level by LC/MS analysis relative to control; type: ADME, cell-based, Macaca fascicularis, Hepatocyte

## COc1ccc(OC(=O)N(CC(=O)O)Cc2ccc(OCCc3nc(-c4ccccc4)oc3C)cc2)cc1 [MURAGLITAZAR]
[1]
  Drug uptake: 0.13%
[2]
  Drug uptake: 0.3%
[3]
  Drug uptake: 0.55%
Plasma [4]
  Drug uptake: 0.2%
Plasma [5]
  Drug uptake: 1%
Plasma [6]
  Drug uptake: 3%
[7]
  Drug uptake: 0.56%
[8]
  Drug uptake: < 0.2%
[9]
  Drug uptake: 11.45%
Rattus norvegicus [10]
  Drug uptake: < 0.01%
Plasma [11]
  Drug uptake: 0.9%
[12]
  dose excreted at 24 h: 13.2%
[13]
  Drug uptake: 1.1%
[14]
  Drug uptake: 0.3%
Plasma [15]
  Drug uptake: 0.05%
Rattus norvegicus [16]
  Drug uptake: 9.65%
Plasma [17]
  Drug uptake: 0.3%
[18]
  Drug uptake: 0.4%
[19]
  Drug uptake: 0.16%
Plasma [20]
  Drug uptake: < 0.05%
[21]
  dose excreted at 24 h: 85%
Hepatocyte [22]
  Drug uptake: < 0.2%
Plasma [23]
  Drug uptake: 1%
Hepatocyte [24]
  Drug uptake: 5.7%
[25]
  Drug uptake: 0.01%
[26]
  Drug uptake: < 0.2%
[27]
  Drug uptake: 0.068 mgequiv/ml
Rattus norvegicus [28]
  Drug uptake: 0.01%
[29]
  Drug uptake: 0.12%
[30]
  Drug uptake: 0.6%
Hepatocyte [31]
  Drug uptake: 2.3%
[32]
  Drug uptake: 75%
Plasma [33]
  Drug uptake: 1.5%
[34]
  Drug uptake: 13%
[35]
  Drug uptake: 0.04%
Plasma [36]
  Drug uptake: 0.2%
[37]
  Drug uptake: 0.03%
[38]
  Drug uptake: 66%
Rattus norvegicus [39]
  Drug uptake: 34.2%
[40]
  Drug uptake: 65.1%
[41]
  Drug uptake: 1.48%
Plasma [42]
  Drug uptake: 1%
Plasma [43]
  Drug uptake: 1%
Plasma [44]
  Drug uptake: 0.4%
[45]
  dose excreted at 12 h: 0.51%
[46]
  Drug uptake: 0.8%
[47]
  Drug uptake: 0.13%
Plasma [48]
  Drug uptake: 21.4%
[49]
  dose excreted at 48 h: 15%
[50]
  Drug uptake: 0.26%
[51]
  Drug uptake: 11%
